Reference: patent US20250320204A1 (RIBOSCIENCE LLC, priority 2023, published 2025)
pKi: −log10 of the molar value.

target: T1, ENPP1 (Homo sapiens, UniProt P22413); experiment: Measurement of pNP-TMP hydrolysis by ENPP1; assay type: biochemical; conditions: pNP-TMP substrate 500 μM, Km 232 μM; Ki from IC50 by Cheng-Prusoff
T1 sequence (P22413 1-925): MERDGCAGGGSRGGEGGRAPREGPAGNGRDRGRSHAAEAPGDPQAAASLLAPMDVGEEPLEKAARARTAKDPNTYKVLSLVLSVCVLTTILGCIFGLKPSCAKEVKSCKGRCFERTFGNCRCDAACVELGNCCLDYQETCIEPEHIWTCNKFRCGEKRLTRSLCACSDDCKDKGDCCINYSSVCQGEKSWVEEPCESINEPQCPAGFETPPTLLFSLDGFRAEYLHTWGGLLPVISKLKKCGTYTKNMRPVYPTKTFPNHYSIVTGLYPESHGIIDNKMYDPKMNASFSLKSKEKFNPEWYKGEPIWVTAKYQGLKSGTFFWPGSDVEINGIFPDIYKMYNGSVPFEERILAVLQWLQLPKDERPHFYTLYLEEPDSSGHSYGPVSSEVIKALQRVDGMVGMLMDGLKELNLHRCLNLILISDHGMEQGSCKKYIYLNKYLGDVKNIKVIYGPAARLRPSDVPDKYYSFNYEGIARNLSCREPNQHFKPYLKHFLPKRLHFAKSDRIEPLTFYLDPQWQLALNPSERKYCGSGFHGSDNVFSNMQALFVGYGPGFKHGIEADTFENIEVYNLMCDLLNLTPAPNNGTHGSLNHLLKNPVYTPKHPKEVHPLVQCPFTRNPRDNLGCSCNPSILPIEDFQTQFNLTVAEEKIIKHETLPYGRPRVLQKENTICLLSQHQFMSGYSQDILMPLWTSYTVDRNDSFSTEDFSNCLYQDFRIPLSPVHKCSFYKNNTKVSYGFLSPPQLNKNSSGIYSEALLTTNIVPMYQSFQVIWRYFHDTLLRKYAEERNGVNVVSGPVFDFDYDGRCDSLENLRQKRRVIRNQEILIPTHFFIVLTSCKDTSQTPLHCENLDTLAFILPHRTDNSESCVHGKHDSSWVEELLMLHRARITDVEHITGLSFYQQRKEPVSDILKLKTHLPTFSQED
Procedure: Measurement of pNP-TMP hydrolysis by ENPP1
p-Nitrophenyl thymidine 5′-monophosphate (pNP-TMP) is a synthesized substrate for ENPP1. The ENPP1 enzyme activity assay with pNP-TMP substrate was conducted as follows:
First, in a 60 μl reaction, 7.5 ng purified ENPP1 was mixed with 1.2 μl compounds of Formula (I) (test compound) ranging from 13.7 nM to 10 μM. Incubation of ENPP1 with compounds was set at 25° C. for 10 min. Reactions with DMSO only (with ENPP1 but no compound) gave the fastest reaction (MAX Activity). For each compound dilution, wells with assay buffer (50 mM Tris -HCl, pH8.8, 250 mM NaCl, 0.1 mg/ml BSA) and test compounds but no ENPP1 were included as controls for the subtraction of test compound derived absorbance at 405 nm.
Second, after 10 minutes incubation of ENPP1 and test compound, the assay was initiated by transferring 50 μl of the above mentioned ENPP1/test compound reaction into 50 μl of 1 mM pNP-TMP in assay buffer results in a 100 μl total reaction in non-binding surface clear bottom 96 well plates. Absorbance at 405 nm was recorded immediately in kinetic mode by PerkinElmer 2300 Enspire multimode plate reader.
For each inhibitor, the specific ENPP1 activity was calculated using the following equation: ENPP1 activity (pmol/min/μg)=Adjusted Vmax (OD405 nm/min) X conversion factor (pmol/OD405 nm)/amount of enzyme (μg)
Adjusted Vmax=V0X (Km+(S))/(S). In this assay, Km=232 μM, (S)=500 μM. Adjusted Vmax=1.464 X V0.
V0=(OD405 nm with ENPP1-OD405 nm ENPP1 blank)/minutes. OD405 nm was plotted, with blank subtracted, against time (minutes), the initial linear rate is V0.
The conversion factor (pmol/OD405 nm), was determined by plotting the amount of standard, 4-Nitrophenol (Sigma -Aldrich, Catalog #241326), against absorbance at 405 nm. The slope is the conversion factor. The percent ENPP1 activity for each sample was calculated using the following equation: […]
To determine the IC50 for each compound, compound concentration values and percent enzyme activity values were inserted into GraphPad Prism (GraphPad Prism version 9.0 for Windows, GraphPad Software, La Jolla California USA, www.graphpad.com), and Prism's Transform analysis was used to convert the x-axis values (compound concentration) to logarithms. A sigmoidal variable slope nonlinear regression analysis was performed using the following equation: Y=Bottom+ (Top-Bottom)/(1+10^((Log IC50″X) *HillSlope)).
Ki values for each compound were calculated from the observed IC50 from GraphPad analysis using the Cheng-Prusoff equation: Ki=IC50/(1+(S)/KM). (S) here is 500 μM and KM is determined to be 232 μM.

Row | Compound | pKi
1 | CS(=N)(=O)CC1CC2(C1)CN(c1ncnc3c(O)nccc13)C2 (single isomer, unassigned) [Example 2b, ((2-(8-hydroxypyrido[3,4-d]pyrimidin-4-yl)-2-azaspiro[3.3]heptan-6-yl)methyl) (imino)(methyl)-lambda6-sulfanone] | 7.00 to 8.00
2 | N=[S@](=O)(c1cccc(COc2ccnc3c(OCF)nccc23)c1)C1CC1 (single isomer, unassigned) [Example 42] | 7.00 to 8.00
3 | COc1nccc2c(OCc3cc(F)cc([S@](=N)(=O)C4CC4)c3)ccnc12 (single isomer, unassigned) [Example 68] | > 8.00
4 | COc1nccc2c(OCc3cc(F)cc([S@](C)(=N)=O)c3)ccnc12 (single isomer, unassigned) [Example 70] | 7.00 to 8.00
5 | COc1nccc2c(N3CCC(O)(CS(=N)(=O)C4CC4)CC3)ccnc12 (stereo not shown) [Example 4, cyclopropyl((4-hydroxy-1-(8-methoxy-1,7-naphthyridin-4-yl)piperidin-4-yl)-methyl) (imino)-lambda6-sulfanone] | > 8.00
6 | CS(=N)(=O)c1ccc(COc2ccnc3cnccc23)cc1 (stereo not shown) [Example 7] | 7.00 to 8.00
7 | COc1nccc2c(OCc3cccc([S@](=N)(=O)C4CC4)c3)ccnc12 [Example 17a, (R)-Cyclopropyl(imino)(3-(((8-methoxy-1,7-naphthyridin-4-yl)oxy)methyl)phenyl)-lambda6-sulfanone] | 7.00 to 8.00
8 | COc1nccc2c(N3CC4(CCN(S(C)(=N)=O)C4)C3)ccnc12 (stereo not shown) [Example 45, 8-methoxy-4-(6-(S-methylsulfonimidoyl)-2,6-diazaspiro(3.4)octan-2-yl)-1,7-naphthyridine] | > 8.00
9 | COc1nccc2c(Oc3ccc(S(C)(=N)=O)cc3)ccnc12 (stereo not shown) [Example 50, imino (4-((8-methoxy-1,7-naphthyridin-4-yl)oxy)phenyl)(methyl)-lambda6-sulfanone] | > 8.00
10 | CN=S(C)(=O)N1CCC2(CCN(c3ccnc4c(OC)nccc34)C2)C1 (stereo not shown) [Example 54, ((7-(8-methoxy-1,7-naphthyridin-4-yl)-2,7-diazaspiro(4.4)nonan-2-yl)(methyl)oxo-lambda6-sulfanylidene)(methyl)amine] | 5.00 to 7.00
11 | CN=S(=O)(c1cccc(COc2ncnc3c(OC)nccc23)c1)C1CC1 (stereo not shown) [Example 56, cyclopropyl(3-(((8-methoxypyrido[3,4-d]pyrimidin-4-yl)oxy)methyl)phenyl)-(methylimino)-lambda6-sulfanone] | 5.00 to 7.00
12 | CN=S(C)(=O)CC1(O)CCN(c2ccnc3c(OC)nccc23)CC1 (stereo not shown) [Example 57, ((4-hydroxy-1-(8-methoxy-1,7-naphthyridin-4-yl)piperidin-4-yl)methyl)(methyl)-(methylimino)-lambda6-sulfanone] | > 8.00
13 | CN=S(C)(=O)CC1CC2(C1)CN(c1ccnc3c(OC)nccc13)C2 (stereo not shown) [Example 58, ((2-(8-methoxy-1,7-naphthyridin-4-yl)-2-azaspiro(3.3)heptan-6-yl)methyl-methyl)(methylimino)-lambda6-sulfanone] | 5.00 to 7.00
14 | CC(C)Oc1nccc2c(OCc3cccc(S(=N)(=O)C4CC4)c3)ccnc12 (stereo not shown) [Example 61, cyclopropyl(imino) (3-(((8-isopropoxy-1,7-naphthyridin-4-yl)oxy)methyl)phenyl)-lambda6-sulfanone] | 5.00 to 7.00
15 | CS(=N)(=O)CCC1(O)CCN(c2ccnc3c(OCF)nccc23)CC1 (stereo not shown) [Example 63, (2-(1-(8-(fluoromethoxy)-1,7-naphthyridin-4-yl)-4-hydroxypiperidin-4-yl)ethyl)-(imino)(methyl)-lambda6-sulfanone] | 7.00 to 8.00

Results, then the compound that gave them:

Row | pKi | Compound
16 | 7.00 to 8.00 | C[S@@](=N)(=O)c1cccc(COc2ccnc3c(OCF)nccc23)c1 (single isomer, unassigned) [Example 78]
17 | > 8.00 | CS(=N)(=O)CC1CC2(C1)CN(c1ccnc3cnccc13)C2 (stereo not shown) [Example 1, imino(methyl) [[2-(1,7-naphthyridin-4-yl)-2-azaspiro[3.3]heptan-6-yl]methyl]-lambda6-sulfanone]
18 | > 8.00 | COc1nccc2c(N3CC(CCCS(C)(=N)=O)C3)ccnc12 (stereo not shown) [Example 3, imino (3-(1-(8-methoxy-1,7-naphthyridin-4-yl)azetidin-3-yl)propyl)(methyl)-lambda6-sulfanone]
19 | > 8.00 | COc1nccc2c(N3CCC4(C3)CN(S(C)(=N)=O)C4)ccnc12 (stereo not shown) [Example 44, 8-methoxy-4-(2-(S-methylsulfonimidoyl)-2,6-diazaspiro(3.4)octan-6-yl)-1,7-naphthyridine]
20 | > 8.00 | CCOc1nccc2c(N3CCC(O)(CS(C)(=N)=O)CC3)ccnc12 (stereo not shown) [Example 46, ((1-(8-ethoxy-1,7-naphthyridin-4-yl)-4-hydroxypiperidin-4-yl)methyl) (imino)-(methyl)-lambda6-sulfanone]
21 | 5.00 to 7.00 | COc1nccc2c(Oc3cccc(S(C)(=N)=O)c3)ccnc12 (stereo not shown) [Example 51, imino (3-((8-methoxy-1,7-naphthyridin-4-yl)oxy)phenyl)(methyl)-lambda6-sulfanone]
22 | 7.00 to 8.00 | CS(=N)(=O)CC1(O)CCN(c2ccnc3c(OC4CC4)nccc23)CC1 (stereo not shown) [Example 52, ((1-(8-cyclopropoxy-1,7-naphthyridin-4-yl)-4-hydroxypiperidin-4-yl)methyl) (imino)(methyl)-lambda6-sulfanone]
23 | 5.00 to 7.00 | CN=S(C)(=O)N1CCC2(CCN(c3ccnc4c(OC)nccc34)C2)CC1 (stereo not shown) [Example 53, ((2-(8-methoxy-1,7-naphthyridin-4-yl)-2,8-diazaspiro(4.5)decan-8-yl)(methyl)oxo-lambda6-sulfanylidene)(methyl)amine]
24 | 5.00 to 7.00 | CN=S(=O)(c1cccc(COc2ccnc3c(OC)nccc23)c1)C1CC1 (stereo not shown) [Example 55, cyclopropyl(3-(((8-methoxy-1,7-naphthyridin-4-yl)oxy)methyl)phenyl)(methylimino)-lambda6-sulfanone]
25 | > 8.00 | COc1nccc2c(OCc3cc(S(=N)(=O)C4CC4)ccc3F)ccnc12 (stereo not shown) [Example 59, cyclopropyl(4-fluoro-3-(((8-methoxy-1,7-naphthyridin-4-yl)oxy)methyl)-phenyl) (imino)-lambda6-sulfanone]
26 | 5.00 to 7.00 | N=S(=O)(c1cccc(COc2ccnc3c(OC4CC4)nccc23)c1)C1CC1 (stereo not shown) [Example 60, (3-(((8-cyclopropoxy-1,7-naphthyridin-4-yl)oxy)methyl)phenyl)-(cyclopropyl) (imino)-lambda6-sulfanone]
27 | 5.00 to 7.00 | CCCOc1nccc2c(OCc3cccc(S(=N)(=O)C4CC4)c3)ccnc12 (stereo not shown) [Example 62, cyclopropyl(imino) (3-(((8-propoxy-1,7-naphthyridin-4-yl)oxy)methyl)phenyl)-lambda6-sulfanone]
28 | > 8.00 | CS(=N)(=O)CCC1CCN(c2ccnc3c(OCF)nccc23)CC1 (stereo not shown) [Example 65, (2-(1-(8-(fluoromethoxy)-1,7-naphthyridin-4-yl)piperidin-4-yl)ethyl)-(imino)(methyl)-lambda6-sulfanone]
